In the supplement of paper PMC10933113:
Structures can show the parent of a compound that is named as a salt. ± gives the uncertainty stated by the source.

How the values were obtained:
THP-1 [1] = test: AC50 of IL-8 secretion induction; higher = less potent; conditions: exposure time: 18 h
[2] = tested on: KeratinoSens (HaCaT ARE-luciferase) cells; test: cytotoxicity AC50 (CellTiter-Fluor viability); higher = less cytotoxic; conditions: exposure time: 24 h
THP-1 [3] = test: efficacy of IL-8 induction relative to DMSO (% activity); higher = stronger induction; conditions: exposure time: 18 h
[4] = tested on: lysine peptide Ac-RFAAKAA-COOH; test: efficacy of lysine peptide change (negative = depletion) (% activity); higher = less depletion; conditions: incubation time: 24 h
[5] = tested on: cysteine peptide Ac-RFAACAA-COOH; test: efficacy of cysteine peptide change (negative = depletion) (% activity); higher = less depletion; conditions: incubation time: 24 h
[6] = tested on: KeratinoSens (HaCaT ARE-luciferase) cells; test: efficacy of ARE luciferase induction relative to DMSO (% activity over DMSO); higher = stronger induction; conditions: exposure time: 24 h
[7] = tested on: cysteine peptide Ac-RFAACAA-COOH; test: AC50 of cysteine peptide concentration-response (direction given by sign of efficacy); higher = less potent; conditions: incubation time: 24 h
[8] = tested on: KeratinoSens (HaCaT ARE-luciferase) cells; test: AC50 of Nrf2/ARE luciferase induction; higher = less potent; conditions: exposure time: 24 h

SMILES | AC50 of IL-8 secretion induction (THP-1 [1]) | cytotoxicity AC50 [2] | efficacy of IL-8 induction (THP-1 [3]) | efficacy of lysine peptide change [4] | efficacy of cysteine peptide change [5] | efficacy of ARE luciferase induction [6] | AC50 [7] | AC50 of Nrf2/ARE luciferase induction [8]
Clc1nc(C(Cl)(Cl)Cl)c(Cl)c(Cl)c1Cl [2,3,4,5-Tetrachloro-6-(trichloromethyl)pyridine] | 47.3 µM | 37.1 ± 4.7 µM | 33.7 ± 5.8 | 1.85 ± 3.2 | -2.03 ± 3.5 | 43.7 ± 28 | – | –
O=[N+]([O-])c1cc(C(F)(F)F)c(Cl)c([N+](=O)[O-])c1Cl [2,4-Dichloro-1,3-dinitro-5-(trifluoromethyl)benzene] | 17.2 µM | 26.1 ± 1.8 µM | 64.7 ± 13 | 251 ± 34 | -83.7 ± 9 | -10.8 ± 42 | 23.8 ± 18 µM | –
c1ccc2sc(SSN3CCOCC3)nc2c1 [2-(Morpholin-4-yldithio)-1,3-benzothiazole] | 59.9 µM | – | 58 ± 8.8 | – | – | 57.3 ± 29 | – | –
CCN(CC)c1ccc(C(=O)c2ccccc2C(=O)O)c(O)c1 [2-[4-(Diethylamino)-2-hydroxybenzoyl]benzoic acid] | 38.4 µM | 30.5 ± 2 µM | 75.5 ± 11 | -5.24 ± 15 | 1.78 ± 13 | 56.6 ± 46 | – | –
c1cc(N(CC2CO2)CC2CO2)ccc1Cc1ccc(N(CC2CO2)CC2CO2)cc1 (stereo not drawn) [4,4'-Methylenebis(N,N-diglycidylaniline)] | 37.1 µM | 35.5 µM | 103 ± 16 | – | – | 57 ± 38 | – | 15.8 µM
CCCCCCCCn1sc(Cl)c(Cl)c1=O [4,5-Dichloro-2-octyl-3(2H)-isothiazolone] | 11.7 µM | 12.1 ± 0.79 µM | 50.1 ± 4.7 | -94.5 ± 3.8 | -98.9 ± 3.5 | -41.3 ± 5.3 | 0.88 ± 0.21 µM | –
CN(C)c1ccc(SC#N)cc1 [4-(Dimethylamino)phenylthiocyanate] | – | 65 ± 18 µM | 87.8 ± 8.9 | 1.57 ± 29 | -101 ± 5.4 | 73.3 ± 36 | 3.84 ± 0.25 µM | 34.2 µM
CNc1ccc(O)cc1 [4-(Methylamino)phenol Sulfate] | 46.7 µM | 27.3 ± 3.8 µM | 8.27 ± 13 | -10.9 ± 3 | -82.7 ± 14 | 65.8 ± 4.2 | 0.16 ± 0.06 µM | –
O=c1cc(-c2ccccc2)oc2ccc3ccccc3c12 [5,6-Benzoflavone] | 79.4 µM | – | 98 ± 14 | – | – | -34.9 ± 4.2 | – | –
Nc1ncn([C@@H]2O[C@H](CO)[C@@H](O)[C@H]2O)c(=O)n1 [5-Azacytidine] | 41.6 µM | 17.8 ± 6.3 µM | 55 ± 5.8 | 6.9 ± 7.1 | 4.3 ± 7.4 | 275 ± 140 | – | 18.9 µM
O=C(Nc1ccccc1)c1cc(Cl)ccc1O [5-Chlorosalicylanilide] | 35.5 µM | 25.2 ± 2.9 µM | 112 ± 7.5 | 77.4 ± 23 | -46 ± 19 | -20.1 ± 52 | – | –
Cc1c2ccccc2c(C)c2c1ccc1ccccc12 [7,12-Dimethylbenzanthracene] | – | 57 ± 12 µM | 129 ± 15 | -47.7 ± 5.3 | -86.2 ± 6.7 | 69 ± 29 | 19.4 ± 11 µM | 29.6 µM
CC1COc2ccccc2N1C(=O)C(Cl)Cl (stereo not drawn) [Benoxacor] | 79.8 µM | 46.5 ± 3.1 µM | 136 ± 40 | 9.43 ± 16 | 5.74 ± 9.9 | 33.2 ± 15 | – | –
N=C1C=CC(=C(c2ccc(N)cc2)c2ccc(N)cc2)C=C1 [C.I. Basic Red 9 monohydrochloride] | 44.7 µM | 34.2 ± 2.2 µM | 100 ± 9.3 | 182 ± 33 | -58.7 ± 20 | 38.6 ± 64 | 38.4 ± 2.5 µM | –
CCCCNC(=O)OCC#CI [Carbamic acid, butyl-, 3-iodo-2-propynyl ester] | – | 37.1 ± 4.7 µM | 20.3 ± 4.5 | 64.6 ± 18 | -92.5 ± 3.8 | 133 ± 50 | 1.05 ± 0.13 µM | 27.3 µM
C/C=C/C=C/CCCCCCCO [Codlelure] | – | 44.9 ± 5.2 µM | 8.57 ± 7.8 | 20.6 ± 4.8 | -104 ± 14 | 1300 ± 400 | 28.6 ± 15 µM | 73.7 µM
COc1ccc(C(=O)/C(Br)=C\C(=O)O)cc1 [Cytembena] | – | 57 ± 12 µM | 33.2 ± 4.5 | 12.2 ± 14 | -95.5 ± 18 | 417 ± 100 | 79.8 ± 9.2 µM | 37.1 µM
O=C1c2ccccc2C(=O)C1c1ccc2ccccc2n1 [D & C Yellow II] | 38.4 µM | 28.2 µM | 71.4 ± 9.3 | -13.8 ± 13 | -22.9 ± 5.9 | 68.8 ± 34 | – | 11.6 µM
CCS(=O)(=O)CCSP(=O)(OC)OC [Demeton-S-methylsulphon] | 30.7 µM | 22.5 ± 2.6 µM | 108 ± 5.1 | -8 ± 20 | -43.5 ± 12 | 28.1 ± 59 | – | 19 µM
CN(C)S(=O)(=O)N(SC(F)(Cl)Cl)c1ccccc1 [Dichlofluanid] | – | 27.2 ± 1.8 µM | 19.9 ± 4.2 | 62.1 ± 23 | -92.1 ± 5 | 169 ± 52 | 1.96 ± 0.48 µM | 15.8 µM
CCC1OCC(COc2ccc(Oc3ccccc3)cc2)O1 (stereo not drawn) [Diofenolan] | 34.2 µM | 24.4 ± 4.2 µM | 113 ± 5.8 | 0.82 ± 8.5 | 8.44 ± 17 | 138 ± 84 | – | 13.7 µM
COc1cccc2c1C(=O)c1c(O)c3c(c(O)c1C2=O)C[C@@](O)(C(=O)CO)C[C@@H]3O[C@H]1C[C@H](N)[C@H](O)[C@H](C)O1 [Doxorubicin*] | – | 11.3 ± 1.3 µM | 31.2 ± 4.9 | -21.7 ± 10 | -92.2 ± 5 | 860 ± 140 | 0.9 ± 0.1 µM | 7.94 µM
CC/C=C\C/C=C\C/C=C\CCCCCCCC(=O)OCC [Ethyl linolenate] | – | 32.9 ± 2.2 µM | 14.7 ± 5.5 | -51.8 ± 5.7 | -100 ± 11 | 95.1 ± 71 | 9.27 ± 3.2 µM | 18.4 µM
c1ccc(CCNc2nc(-c3ccccc3)cs2)cc1 [Fanetizole] | – | 41.4 ± 2.8 µM | 45.8 ± 14 | 35 ± 23 | -113 ± 17 | 119 ± 37 | 40 ± 4.6 µM | 33.2 µM
COC(=O)Nc1nc2cc(Sc3ccccc3)ccc2[nH]1 [Fenbendazole] | 39.8 µM | 3.46 ± 1.9 µM | 213 ± 14 | 33.8 ± 41 | 0 | 46 ± 53 | – | –
CC(C)=CCC1C(=O)N(c2ccccc2)N(c2ccccc2)C1=O [Feprazone] | 85.9 µM | 40 ± 4.6 µM | 60.5 ± 9.2 | 0 | -88.7 ± 16 | 281 ± 320 | – | 46 µM
O=[N+]([O-])c1ccc(Oc2ccc(C(F)(F)F)cc2[N+](=O)[O-])cc1 [Fluorodifen] | 43.1 µM | 29.6 ± 5.3 µM | 109 ± 12 | 2.81 ± 12 | -4.44 ± 7.7 | 45.8 ± 80 | – | –
